Laboratory results: patent publication US8993586B2, “N1/N2-lactam acetyl-CoA carboxylase inhibitors” (Pfizer Inc., priority 2010, dated 2015)

Key:
[1] = biological target: recombinant human ACC1 (rhACC1) (Homo sapiens (Human), UniProt Q13085); assay: recombinant hACC1 Transcreener ADP detection FP assay; format: biochemical; conditions: 50 μM ATP, 120 min at 25° C.
Experimental: (§1) For example direct inhibition of ACC activity, for the compound of Formula (I) was determined using preparations of recombinant human ACC1 (rhACC1) and recombinant human ACC2 (rhACC2).
[1] Preparation of rhACC1. Two liters of SF9 cells, infected with recombinant baculovirus containing full length human ACC1 cDNA, were suspended in ice-cold lysis buffer (25 mM Tris, pH 7.5; 150 mM NaCl; 10% glycerol; 5 mM imidazole (EMD Bioscience; Gibbstown, N.J.); 2 mM TCEP (BioVectra; Charlottetown, Canada); Benzonase nuclease (10000 U/100 g cell paste; Novagen; Madison, Wis.); EDTA-free protease inhibitor cocktail (1 tab/50 mL; Roche Diagnostics; Mannheim, Germany). Cells were lysed by 3 cycles of freeze-thaw and centrifuged at 40,000×g for 40 minutes (4° C.). Supernatant was directly loaded onto a HisTrap FF crude column (GE Healthcare; Piscataway, N.J.) and eluted with an imidazole gradient up to 0.5 M over 20 column volumes (CV). ACC1-containing fractions were pooled and diluted 1:5 with 25 mM Tris, pH 7.5, 2 mM TCEP, 10% glycerol and direct loaded onto a CaptoQ (GE Healthcare) column and eluted with an NaCl gradient up to 1 M over 20 CV's. Phosphate groups were removed from purified ACC1 by incubation with lambda phosphatase (100 U/10 μM target protein; New England Biolabs; Beverly, Mass.) for 14 hours at 4° C.; okadaic acid was added (1 μM final concentration; Roche Diagnostics) to inhibit the phosphatase. Purified ACC1 was exchanged into 25 mM Tris, pH 7.5, 2 mM TCEP, 10% glycerol, 0.5 M NaCl by 6 hour dialysis at 4° C. Aliquots were prepared and frozen at −80° C.
[2] Measurement of rhACC1 inhibition. hACC1 was assayed in a Costar #3676 (Costar, Cambridge, Mass.) 384-well plate using the Transcreener ADP detection FP assay kit (Bellbrook Labs, Madison, Wis.) using the manufacturer's recommended conditions for a 50 μM ATP reaction. The final conditions for the assay were 50 mM HEPES, pH 7.2, 10 mM MgCl2, 7.5 mM tripotassium citrate, 2 mM DTT, 0.1 mg/mL BSA, 30 μM acetyl-CoA, 50 μM ATP, and 10 mM KHCO3 Typically, a 10 μl reaction was run for 120 min at 25° C., and 10 μl of Transcreener stop and detect buffer was added and the combination incubated at room temp for an additional 1 hour. The data was acquired on a Envision Fluorescence reader (PerkinElmer) using a 620 excitation Cy5 FP general dual mirror, 620 excitation Cy5 FP filter, 688 emission (S) and a 688 (P) emission filter.

[2] = biological target: recombinant human ACC2 (rhACC2) (Homo sapiens (Human), UniProt O00763); assay: recombinant hACC2 Transcreener ADP detection FP assay; format: biochemical; conditions: 50 uM ATP, 50 min at 25° C.
Experimental: as §1
[3] Preparation of rhACC2. Human ACC2 inhibition was measured using purified recombinant human ACC2 (hrACC2). Briefly, a full length Cytomax clone of ACC2 was purchased from Cambridge Bioscience Limited and was sequenced and subcloned into PCDNA5 FRT TO-TOPO (Invitrogen, Carlsbad, Calif.). The ACC2 was expressed in CHO cells by tetracycline induction and harvested in 5 liters of DMEM/F12 with glutamine, biotin, hygromycin and blasticidin with 1 μg/mL tetracycline (Invitrogen, Carlsbad, Calif.). The conditioned medium containing ACC2 was then applied to a Softlink Soft Release Avidin column (Promega, Madison, Wis.) and eluted with 5 mM biotin. […] The purified ACC2 was dialyzed in 50 mM Tris, 200 mM NaCl, 4 mM DTT, 2 mM EDTA, and 5% glycerol. […] For measurement of ACC2 activity and assessment of ACC2 inhibition, test compounds were dissolved in DMSO and added to the rhACC2 enzyme as a 5× stock with a final DMSO concentration of 1%.
[4] Measurement of human ACC2 inhibition. hACC2 was assayed in a Costar #3676 (Costar, Cambridge, Mass.) 384-well plate using the Transcreener ADP detection FP assay kit (Bellbrook Labs, Madison, Wis.) using the manufacturer's recommended conditions for a 50 uM ATP reaction. The final conditions for the assay were 50 mM HEPES, pH 7.2, 5 mM MgCl2, 5 mM tripotassium citrate, 2 mM DTT, 0.1 mg/mL BSA, 30 μM acetyl-CoA, 50 μM ATP, and 8 mM KHCO3 Typically, a 10 μl reaction was run for 50 min at 25° C., and 10 μl of Transcreener stop and detect buffer was added and the combination incubated at room temp for an additional 1 hour. The data was acquired on an Envision Fluorescence reader (PerkinElmer) using a 620 excitation Cy5 FP general dual mirror, 620 excitation Cy5 FP filter, 688 emission (S) and a 688 (P) emission filter.

Sequence of recombinant human ACC2 (rhACC2) (O00763 whole entry V2141I): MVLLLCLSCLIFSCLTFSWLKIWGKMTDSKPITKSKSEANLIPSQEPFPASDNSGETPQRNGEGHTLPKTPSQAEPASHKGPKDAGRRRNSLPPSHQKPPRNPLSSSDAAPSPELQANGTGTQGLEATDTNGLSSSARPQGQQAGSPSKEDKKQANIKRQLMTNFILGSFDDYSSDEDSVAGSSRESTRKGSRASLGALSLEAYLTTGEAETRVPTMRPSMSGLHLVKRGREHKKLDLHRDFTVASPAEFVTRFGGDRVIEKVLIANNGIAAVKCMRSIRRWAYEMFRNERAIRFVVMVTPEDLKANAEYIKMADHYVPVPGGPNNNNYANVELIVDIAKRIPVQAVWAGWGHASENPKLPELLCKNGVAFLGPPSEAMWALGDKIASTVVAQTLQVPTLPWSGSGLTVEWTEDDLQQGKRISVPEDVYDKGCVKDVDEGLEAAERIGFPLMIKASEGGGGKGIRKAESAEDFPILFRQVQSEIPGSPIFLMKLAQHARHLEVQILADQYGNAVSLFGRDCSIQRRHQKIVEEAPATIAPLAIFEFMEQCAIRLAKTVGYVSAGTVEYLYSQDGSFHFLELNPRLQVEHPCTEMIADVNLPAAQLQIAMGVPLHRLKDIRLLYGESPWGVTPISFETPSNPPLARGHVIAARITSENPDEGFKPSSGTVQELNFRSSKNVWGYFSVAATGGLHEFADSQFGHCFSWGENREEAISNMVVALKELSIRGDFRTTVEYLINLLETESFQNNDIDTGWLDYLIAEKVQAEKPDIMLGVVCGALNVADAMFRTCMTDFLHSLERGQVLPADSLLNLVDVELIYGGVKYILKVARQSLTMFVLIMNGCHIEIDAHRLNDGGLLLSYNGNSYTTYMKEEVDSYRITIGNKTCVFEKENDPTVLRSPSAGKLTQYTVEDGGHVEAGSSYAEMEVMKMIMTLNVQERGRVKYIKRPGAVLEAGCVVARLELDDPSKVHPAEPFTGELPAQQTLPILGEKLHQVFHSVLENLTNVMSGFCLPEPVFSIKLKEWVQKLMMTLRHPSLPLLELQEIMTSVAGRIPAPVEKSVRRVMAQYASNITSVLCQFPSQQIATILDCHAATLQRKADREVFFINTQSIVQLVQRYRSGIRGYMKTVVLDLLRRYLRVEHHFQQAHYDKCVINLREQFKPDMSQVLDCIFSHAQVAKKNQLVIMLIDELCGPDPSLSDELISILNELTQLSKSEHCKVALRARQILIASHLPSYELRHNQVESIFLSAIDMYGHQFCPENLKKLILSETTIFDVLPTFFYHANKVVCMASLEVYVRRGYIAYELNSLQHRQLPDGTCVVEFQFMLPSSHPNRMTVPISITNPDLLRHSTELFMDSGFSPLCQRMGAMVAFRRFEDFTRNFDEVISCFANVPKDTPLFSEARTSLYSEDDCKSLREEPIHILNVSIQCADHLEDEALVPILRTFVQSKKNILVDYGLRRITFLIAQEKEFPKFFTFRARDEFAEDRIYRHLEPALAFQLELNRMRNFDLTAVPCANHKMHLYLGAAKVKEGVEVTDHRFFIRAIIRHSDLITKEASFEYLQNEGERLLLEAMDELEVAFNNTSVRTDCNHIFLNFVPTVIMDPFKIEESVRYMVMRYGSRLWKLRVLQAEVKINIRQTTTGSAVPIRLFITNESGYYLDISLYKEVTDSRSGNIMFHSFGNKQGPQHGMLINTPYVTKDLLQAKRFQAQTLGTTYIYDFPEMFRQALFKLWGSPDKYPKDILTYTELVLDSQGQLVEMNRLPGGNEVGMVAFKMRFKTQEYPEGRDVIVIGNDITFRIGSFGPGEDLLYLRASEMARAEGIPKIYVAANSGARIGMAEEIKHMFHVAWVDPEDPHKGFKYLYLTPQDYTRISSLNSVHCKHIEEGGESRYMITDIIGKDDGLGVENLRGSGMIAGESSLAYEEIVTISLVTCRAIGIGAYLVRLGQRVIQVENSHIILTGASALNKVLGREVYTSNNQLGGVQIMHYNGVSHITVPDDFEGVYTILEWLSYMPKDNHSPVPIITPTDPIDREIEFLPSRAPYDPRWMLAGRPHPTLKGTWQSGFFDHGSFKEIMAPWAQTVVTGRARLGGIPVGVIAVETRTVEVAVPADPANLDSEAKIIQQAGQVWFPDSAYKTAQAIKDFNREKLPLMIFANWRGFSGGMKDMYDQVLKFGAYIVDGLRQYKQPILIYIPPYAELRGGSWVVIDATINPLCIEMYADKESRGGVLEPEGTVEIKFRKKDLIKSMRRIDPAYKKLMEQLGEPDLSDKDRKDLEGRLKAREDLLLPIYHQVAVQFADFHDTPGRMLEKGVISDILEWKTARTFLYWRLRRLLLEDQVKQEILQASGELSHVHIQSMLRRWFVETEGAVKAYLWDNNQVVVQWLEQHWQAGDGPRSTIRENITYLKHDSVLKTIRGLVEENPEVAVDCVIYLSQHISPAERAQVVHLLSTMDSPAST

IC50 [1] [nM] | IC50 [2] [nM] | SMILES
302 | 127 | CNc1n[nH]c2ccc(C(=O)N3CCC4(CC3)Cc3cnn(C(C)C)c3C(=O)N4)cc12 [Example 37]
332 | 54 | CCN(C)c1nccc2ccc(C(=O)N3CCC4(CC3)Cc3cn(C(C)(C)C)nc3C(=O)N4)cc12 [Example 117]
3.4 | 1 | CC(C)(C)n1cc2c(n1)C(=O)NC1(CCN(C(=O)c3ccc4ccc(NC5CCC5)nc4c3)CC1)C2 [Example 109]
621 | 520 | CC(C)n1ncc2c1C(=O)NC1(CCN(C(=O)c3ccc4ccncc4c3)CC1)C2 [Example 23]
6.5 | 1.72 | CC(C)(C)n1cc2c(n1)C(=O)NC1(CCN(C(=O)c3ccc4ccc(NCC(F)(F)F)nc4c3)CC1)C2 [Example 124]
8.9 | 1.8 | CCNc1ccc2ccc(C(=O)N3CCC4(CC3)Cc3cn(C(C)(C)C)nc3C(=O)N4)cc2n1 [Example 112]
194 | 33 | Cn1[nH]c2cc(C(=O)N3CCC4(CC3)Cc3cn(C(C)(C)C)nc3C(=O)N4)ccc2c1=O [Example 84]
18 | 3.2 | COc1cccc2ncc(C(=O)N3CCC4(CC3)Cc3cn(C(C)(C)C)nc3C(=O)N4)cc12 [Example 74]
9 | 1.7 | CC(F)(F)CNc1ccc2ccc(C(=O)N3CCC4(CC3)Cc3cn(C(C)(C)C)nc3C(=O)N4)cc2n1 [Example 125]
149 | 12 | CC(C)(C)n1cc2c(n1)C(=O)NC1(CCN(C(=O)c3ccc4nc(N)ccc4c3)CC1)C2 [Example 58]
3920 | 2280 | CC(C)n1ncc2c1C(=O)NC1(CCN(C(=O)c3ccc4nn(C)cc4c3)CC1)C2 [Example 3, 1′-isopropyl-1-(2-methyl-2H-indazole-5-carbonyl)-4′,6′-dihydrospiro[piperidine-4,5′-pyrazolo[3,4-c]pyridin]-7′(1′H)-one]
269 | 305 | CC(C)(C)n1ncc2c1C(=O)NC1(CCN(C(=O)c3ccc4n[nH]cc4c3)CC1)C2 [Example 6]
28 | 5.9 | CC(C)(C)n1cc2c(n1)C(=O)NC1(CCN(C(=O)c3ccc4ccc(N)nc4c3)CC1)C2 [Example 72]
62 | 7.1 | CC(C)(C)n1cc2c(n1)C(=O)NC1(CCN(C(=O)c3cnc4[nH]cc(Cl)c4c3)CC1)C2 [Example 96]
1340 | 311 | Cn1[nH]c2ccc(C(=O)N3CCC4(CC3)Cc3cn(C(C)(C)C)nc3C(=O)N4)cc2c1=O [Example 67]
494 | 77 | CC(C)(C)n1cc2c(n1)C(=O)NC1(CCN(C(=O)c3ccc4ccnc(NC5COC5)c4c3)CC1)C2 [Example 122]
67 | 28 | CNc1nccc2ccc(C(=O)N3CCC4(CC3)Cc3cnn(C(C)C)c3C(=O)N4)cc12 [Example 36]
216 | 18 | COc1n[nH]c2cc(C(=O)N3CCC4(CC3)Cc3cn(C(C)(C)C)nc3C(=O)N4)ccc12 [Example 79]
130 | 23 | CC(C)(C)n1cc2c(n1)C(=O)NC1(CCN(C(=O)c3ccc4cc(N)ncc4c3)CC1)C2 [Example 94]
296 | 132 | CC(C)n1ncc2c1C(=O)NC1(CCN(C(=O)c3ccc4[nH]nc(C(N)=O)c4c3)CC1)C2 [Example 27]

Further lines, the molecule ahead of its results:

SMILES | IC50 [1] [nM] | IC50 [2] [nM]
Cc1n[nH]c2ccc(C(=O)N3CCC4(CC3)Cc3cnn(C(C)C)c3C(=O)N4)cc12 [Example 16] | 118 | 90
CC(C)n1ncc2c1C(=O)NC1(CCN(C(=O)c3ccc4ncccc4c3)CC1)C2 [Example 21] | 619 | 341
Cc1cc(C(=O)N2CCC3(CC2)Cc2cn(C(C)(C)C)nc2C(=O)N3)cc2cn[nH]c12 [Example 44] | 26 | 10
COc1nccc2ccc(C(=O)N3CCC4(CC3)Cc3cnn(C(C)C)c3C(=O)N4)cc12 [Example 30] | 98 | 30
CCNc1nccc2ccc(C(=O)N3CCC4(CC3)Cc3cn(C(C)(C)C)nc3C(=O)N4)cc12 [Example 121] | 17 | 2.7
CC(C)Nc1ccc2ccc(C(=O)N3CCC4(CC3)Cc3cn(C(C)(C)C)nc3C(=O)N4)cc2n1 [Example 107] | 6.1 | 2.2
Cc1cc(C(=O)N2CCC3(CC2)Cc2cn(C(C)(C)C)nc2C(=O)N3)cc2c(Cl)n[nH]c12 [Example 62] | 8.4 | 2.1
CNc1nc2cc(C(=O)N3CCC4(CC3)Cc3cnn(C(C)C)c3C(=O)N4)ccc2[nH]1 [Example 33] | 523 | 108
CC(C)(C)n1cc2c(n1)C(=O)NC1(CCN(C(=O)c3ccc4[nH]nc(C(N)=O)c4c3)CC1)C2 [Example 54] | 21 | 5.1
CC(C)n1ncc2c1C(=O)NC1(CCN(C(=O)c3cnc4cn[nH]c4c3)CC1)C2 [Example 19] | 1480 | 2010
COc1cccc2cc(C(=O)N3CCC4(CC3)Cc3cn(C(C)(C)C)nc3C(=O)N4)cnc12 [Example 68] | 221 | 68
COc1cccc2cc(C(=O)N3CCC4(CC3)Cc3cn(C(C)(C)C)nc3C(=O)N4)ccc12 [Example 50] | 30 | 7.5
CC(C)n1ncc2c1C(=O)NC1(CCN(C(=O)c3ccc4[nH]c(N)nc4c3)CC1)C2 [Example 35] | 487 | 91
COCCNc1ccc2ccc(C(=O)N3CCC4(CC3)Cc3cn(C(C)(C)C)nc3C(=O)N4)cc2n1 [Example 111] | 27 | 3.3
CC(C)n1ncc2c1C(=O)NC1(CCN(C(=O)c3ccc4[nH]ncc4c3)CC1)C2 [Example 5] | 227 | 174
CC(C)(C)n1cc2c(n1)C(=O)NC1(CCN(C(=O)c3ccc4c(C#N)n[nH]c4c3)CC1)C2 [Example 53] | 47 | 13
COc1ccc(C)c2[nH]c(C(=O)N3CCC4(CC3)Cc3cn(C(C)(C)C)nc3C(=O)N4)cc12 [Example 56] | 7.4 | 1.9
CC(C)(C)n1cc2c(n1)C(=O)NC1(CCN(C(=O)c3ccc4ccc(Cl)nc4c3)CC1)C2 [Example 104, 2′-tert-butyl-1-(2-chloroquinoline-7-carbonyl)-4′,6′-dihydrospiro[piperidine-4,5′-pyrazolo[3,4-c]pyridin]-7′(2′H)-one] | 89 | 16
CC(C)(C)n1cc2c(n1)C(=O)NC1(CCN(C(=O)c3ccc4[nH]c(N)nc4c3)CC1)C2 [Example 77] | 80 | 8.4
COc1ccc2ncc(C(=O)N3CCC4(CC3)Cc3cnn(C(C)C)c3C(=O)N4)cc2c1 [Example 26] | 121 | 60
CNc1cc2ccc(C(=O)N3CCC4(CC3)Cc3cnn(C(C)C)c3C(=O)N4)cc2cn1 [Example 38] | 364 | 107
